In experiment [1] the test system is rats with L5/L6 spinal nerve ligation (SNL). Kind of experiment: thermal hyperalgesia: paw-withdrawal latency to radiant heat, rat L5/L6 spinal nerve ligation (SNL) model. The format is in vivo. Particulars: intrathecal twice daily. The protocol: (§1) This example describes an evaluation of neuropathic pain in an animal model. An in vivo rat L5/L6 spinal nerve ligation (SNL) study is conducted as described by Kim and Chung (1992). These in vivo experiments to evaluate neuropathic pain with compounds and compositions according to the invention as prescribed herein are conducted on male Sprague-Dawley rats (Harlan; Indianapolis, Ind.) that are 200-225 g at the time of the L5/L6 surgery as described below. The rats are maintained in a climate-controlled room on a 12-h light/dark cycle (lights on at 06:00 h); food and water are provided ad libiturn. The testing is performed in accordance with accepted policies and guidelines for the handling and use of laboratory animals.
In an initial study, the effects of intrathecally delivered morphine and naloxone or morphine alone are tested after ligation of the L5 and L6 spinal nerves in rats. At one week, after a neuropathic pain syndrome of thermal hyperalgesia and tactile allodynia is stabilized, rats receive daily intrathecal injections of vehicle, morphine alone, morphine plus naloxone or naloxone alone for seven days. […] The animals first undergo intrathecal implantation of a catheter that allows for drug delivery at the lumbar (L5) spinal cord region. Animal baseline withdrawals from thermal and tactile stimuli are recorded. Animals then undergo the L5/L6 ligation surgery as described below and are tested for tactile and thermal hypersensitivities, for example, on day 3 through day 7 after the surgery, and then, for example, on day 8, animals begin the twice daily intrathecal administration of vehicle or drug substances in doses as described below. Animals are tested, for example, from about 20 to about 30 minutes after the first daily intrathecal dose for hyperalgesic and anti-allodynia effects for a total of 7 days as described below.
While under halothane anesthesia, an 8 cm length of 32 gauge tubing is inserted in the Sprague-Dawley rats to the level of the lumbar enlargement via an incision made in the atlanto-occipital membrane. The catheter is then secured to the musculature at the site of incision, which is then closed. The rats receive 4.4 mg/kg of gentamycin (intramuscular administration) as a prophylactic precaution and are allowed 5-7 days for recovery before experimentation begins, for example, before L5/L6 ligation surgery begins as described below. […] Intrathecally administered substances are dissolved in saline (to a total volume of 5 μl) prior to administration through a length of tubing connecting the intrathecal catheter with the injection syringe. Progress of the injection is determined by observing the movement of an air bubble through a calibrated length of the tubing. The catheter is cleared by flushing with 9 μl saline.
For these experiments, morphine, when given either as the sole drug or in combination with naltrexone to the rats, is administered to the rats at a dosage ranging from 1-30 micrograms, if given intrathecally. Naltrexone, when given either as the sole drug or in combination with morphine to the rats, is administered to the rats at a dosage ranging from 1 femtogram (fg) to 30 nanograms (ng) if given intrathecally. For other experiments, if given systemically, morphine, when given either as the sole drug or in combination with naltrexone to the rats, is administered to the rats at a dosage ranging from 1 mg/kg to 20 mg/kg. If given systemically, naltrexone, when given either as the sole drug or in combination with morphine to the rats, is administered to the rats at a dosage ranging from 1 femtogram to 300 nanograms. Administration of drug or vehicle to the rat is performed, for example, both on a BID or QID basis. For these experiments, morphine sulfate is purchased from Sigmia (St. Louis, Mo.) and naltrexone hydrochloride is purchased from Tocris (Ellisville, Mo.). These substances are dissolved in sterile 0.9% physiological saline from Baxter (Deerfield, Ill.).

The test system is the same in experiment [2]. Particulars: morphine given alone by the intrathecal route; stated as well known; cited from earlier work.
The test system is the same in experiment [3]. Kind of experiment: tactile allodynia: paw-withdrawal threshold to von Frey filaments, rat L5/L6 spinal nerve ligation (SNL) model. Particulars: naltrexone 0.1 ng alone, intrathecal twice daily; initial study. It is filed as in vivo. Here is the method: as §1
In an initial study, the effects of intrathecally delivered morphine and naloxone or morphine alone are tested after ligation of the L5 and L6 spinal nerves in rats. […] Animal baseline withdrawals from thermal and tactile stimuli are recorded. […]
While under halothane anesthesia, an 8 cm length of 32 gauge tubing is inserted in the Sprague-Dawley rats to the level of the lumbar enlargement via an incision made in the atlanto-occipital membrane. […] Progress of the injection is determined by observing the movement of an air bubble through a calibrated length of the tubing. […]

Here are results for two molecules from patent publication US20050038062A1, “Methods and materials for the treatment of pain comprising opioid antagonists” (priority 2003, published 2005).

“Also recorded” adds a separate entry of the source.

As to `CN1CC[C@]23c4c5ccc(O)c4O[C@H]2[C@@H](O)C=C[C@H]3[C@H]1C5` [morphine], the antihyperalgesia was 65% in experiment [1] (morphine 10 μg alone, day 8 after SNL (= Day 1 of administration), initial study) and 73% in experiment [1] (morphine 10 μg alone, day 9 after SNL (= Day 2), initial study). The “antihyperalgesia (activity)” value in experiment [1] (morphine 10 μg alone, day 11 after SNL (= Day 4), initial study) amounted to 38%. In experiment [1] (morphine 10 μg alone, initial study (day 11 after SNL = Day 4)), the “tolerance to the antihyperalgesia effect” value is given as “tolerance to the antihyperalgesia effect by day 11; also recorded: tolerance to the anti-hyperalgesia effect by Day 4”. Also, the “antihyperalgesia, return to baseline” value in experiment [1] (morphine 10 μg alone, initial study (day 12 after SNL = Day 5)) is reported as “return to baseline by day 12; also recorded: return to baseline by day 5”. Moreover, in experiment [2], the antiallodynic effect result is “no antiallodynic effect”.
As to `O=C1CC[C@@]2(O)[C@H]3Cc4ccc(O)c5c4[C@@]2(CCN3CC2CC2)[C@H]1O5` [naltrexone], in experiment [1] (naltrexone 0.1 ng alone, initial study), the effect on antihyperalgesia entry is “no effect”. The effect on allodynia result in experiment [3] is given as “no effect”.
